Laboratory results reported in BigSolDB 2.1.

O=[N+]([O-])c1cc([N+](=O)[O-])c(Cl)c(Cl)c1Cl
solubility (mole fraction) (in dichloromethane, 303.15 K): 0.159 | solubility (mole fraction) (in dichloromethane, 308.15 K): 0.185 | solubility (mole fraction) (in ethanol, 278.15 K): 0.00235 | solubility (mole fraction) (in ethanol, 283.15 K): 0.00301 | solubility (mole fraction) (in ethanol, 288.15 K): 0.00382 | solubility (mole fraction) (in ethanol, 293.15 K): 0.00483 | solubility (mole fraction) (in ethanol, 298.15 K): 0.00611 | solubility (mole fraction) (in ethanol, 303.15 K): 0.00765 | solubility (mole fraction) (in ethanol, 308.15 K): 0.00957 | solubility (mole fraction) (in ethanol, 313.15 K): 0.0118 | solubility (mole fraction) (in ethanol, 318.15 K): 0.0146 | solubility (mole fraction) (in ethanol, 323.15 K): 0.0182 | solubility (mole fraction) (in ethyl acetate, 278.15 K): 0.097 | solubility (mole fraction) (in ethyl acetate, 283.15 K): 0.111 | solubility (mole fraction) (in ethyl acetate, 288.15 K): 0.128 | solubility (mole fraction) (in ethyl acetate, 293.15 K): 0.146 | solubility (mole fraction) (in ethyl acetate, 298.15 K): 0.167 | solubility (mole fraction) (in ethyl acetate, 303.15 K): 0.191 | solubility (mole fraction) (in ethyl acetate, 308.15 K): 0.217 | solubility (mole fraction) (in ethyl acetate, 313.15 K): 0.245 | solubility (mole fraction) (in ethyl acetate, 318.15 K): 0.279 | solubility (mole fraction) (in ethyl acetate, 323.15 K): 0.314 | solubility (mole fraction) (in isopropanol, 278.15 K): 0.000879 | solubility (mole fraction) (in isopropanol, 283.15 K): 0.00125 | solubility (mole fraction) (in isopropanol, 288.15 K): 0.00174 | solubility (mole fraction) (in isopropanol, 293.15 K): 0.00241 | solubility (mole fraction) (in isopropanol, 298.15 K): 0.00333 | solubility (mole fraction) (in isopropanol, 303.15 K): 0.00451 | solubility (mole fraction) (in isopropanol, 308.15 K): 0.00603 | solubility (mole fraction) (in isopropanol, 313.15 K): 0.00807 | solubility (mole fraction) (in isopropanol, 318.15 K): 0.0107 | solubility (mole fraction) (in isopropanol, 323.15 K): 0.0142 | solubility (mole fraction) (in methanol, 278.15 K): 0.00262 | solubility (mole fraction) (in methanol, 283.15 K): 0.0033 | solubility (mole fraction) (in methanol, 288.15 K): 0.00414 | solubility (mole fraction) (in methanol, 293.15 K): 0.00519 | solubility (mole fraction) (in methanol, 298.15 K): 0.00648 | solubility (mole fraction) (in methanol, 303.15 K): 0.00806 | solubility (mole fraction) (in methanol, 308.15 K): 0.00985 | solubility (mole fraction) (in methanol, 313.15 K): 0.0121 | solubility (mole fraction) (in methanol, 318.15 K): 0.0149 | solubility (mole fraction) (in methanol, 323.15 K): 0.0182 | solubility (mole fraction) (in n-butanol, 278.15 K): 0.00175 | solubility (mole fraction) (in n-butanol, 283.15 K): 0.00238 | solubility (mole fraction) (in n-butanol, 288.15 K): 0.0032 | solubility (mole fraction) (in n-butanol, 293.15 K): 0.00428 | solubility (mole fraction) (in n-butanol, 298.15 K): 0.00565 | solubility (mole fraction) (in n-butanol, 303.15 K): 0.00752 | solubility (mole fraction) (in n-butanol, 308.15 K): 0.00967 | solubility (mole fraction) (in n-butanol, 313.15 K): 0.0126 | solubility (mole fraction) (in n-butanol, 318.15 K): 0.0164 | solubility (mole fraction) (in n-butanol, 323.15 K): 0.021 | solubility (mole fraction) (in tetrachloromethane, 278.15 K): 0.00374 | solubility (mole fraction) (in tetrachloromethane, 283.15 K): 0.00582 | solubility (mole fraction) (in tetrachloromethane, 288.15 K): 0.00891 | solubility (mole fraction) (in tetrachloromethane, 293.15 K): 0.0134 | solubility (mole fraction) (in tetrachloromethane, 298.15 K): 0.0201 | solubility (mole fraction) (in tetrachloromethane, 303.15 K): 0.0296 | solubility (mole fraction) (in tetrachloromethane, 308.15 K): 0.0425 | solubility (mole fraction) (in tetrachloromethane, 313.15 K): 0.0609 | solubility (mole fraction) (in tetrachloromethane, 318.15 K): 0.0864 | solubility (mole fraction) (in tetrachloromethane, 323.15 K): 0.12 | solubility (mole fraction) (in toluene, 278.15 K): 0.14 | solubility (mole fraction) (in toluene, 283.15 K): 0.159 | solubility (mole fraction) (in toluene, 288.15 K): 0.18 | solubility (mole fraction) (in toluene, 293.15 K): 0.204 | solubility (mole fraction) (in toluene, 298.15 K): 0.23 | solubility (mole fraction) (in toluene, 303.15 K): 0.258 | solubility (mole fraction) (in toluene, 308.15 K): 0.289 | solubility (mole fraction) (in toluene, 313.15 K): 0.323 | solubility (mole fraction) (in toluene, 318.15 K): 0.36 | solubility (mole fraction) (in toluene, 323.15 K): 0.4
